The results in this text go back to paper doi:10.1101/2023.02.14.528391v1 (biorxiv, 2023).

Series [1] has as its target T1, hERG potassium channel (Homo sapiens, UniProt Q12809). Put plainly: in vitro. The following applies: % inhibition.
Series [2] concerns the target T1, hERG potassium channel. Put plainly: biochemical. The following applies: hERG / IC50 (nM). On the technique in general: Block of hERG is tested as a sign of cardiac risk.
For series [3], the target named is T1, hERG potassium channel. Description: biochemical. As to conditions: hERG / Ki (nM).
Series [4] addresses T1, hERG potassium channel. Put plainly: radioligand competition binding, membranes. For orientation: In a radioligand displacement assay an active substance lowers the binding of a labelled ligand.

T1 sequence (Q12809 whole entry): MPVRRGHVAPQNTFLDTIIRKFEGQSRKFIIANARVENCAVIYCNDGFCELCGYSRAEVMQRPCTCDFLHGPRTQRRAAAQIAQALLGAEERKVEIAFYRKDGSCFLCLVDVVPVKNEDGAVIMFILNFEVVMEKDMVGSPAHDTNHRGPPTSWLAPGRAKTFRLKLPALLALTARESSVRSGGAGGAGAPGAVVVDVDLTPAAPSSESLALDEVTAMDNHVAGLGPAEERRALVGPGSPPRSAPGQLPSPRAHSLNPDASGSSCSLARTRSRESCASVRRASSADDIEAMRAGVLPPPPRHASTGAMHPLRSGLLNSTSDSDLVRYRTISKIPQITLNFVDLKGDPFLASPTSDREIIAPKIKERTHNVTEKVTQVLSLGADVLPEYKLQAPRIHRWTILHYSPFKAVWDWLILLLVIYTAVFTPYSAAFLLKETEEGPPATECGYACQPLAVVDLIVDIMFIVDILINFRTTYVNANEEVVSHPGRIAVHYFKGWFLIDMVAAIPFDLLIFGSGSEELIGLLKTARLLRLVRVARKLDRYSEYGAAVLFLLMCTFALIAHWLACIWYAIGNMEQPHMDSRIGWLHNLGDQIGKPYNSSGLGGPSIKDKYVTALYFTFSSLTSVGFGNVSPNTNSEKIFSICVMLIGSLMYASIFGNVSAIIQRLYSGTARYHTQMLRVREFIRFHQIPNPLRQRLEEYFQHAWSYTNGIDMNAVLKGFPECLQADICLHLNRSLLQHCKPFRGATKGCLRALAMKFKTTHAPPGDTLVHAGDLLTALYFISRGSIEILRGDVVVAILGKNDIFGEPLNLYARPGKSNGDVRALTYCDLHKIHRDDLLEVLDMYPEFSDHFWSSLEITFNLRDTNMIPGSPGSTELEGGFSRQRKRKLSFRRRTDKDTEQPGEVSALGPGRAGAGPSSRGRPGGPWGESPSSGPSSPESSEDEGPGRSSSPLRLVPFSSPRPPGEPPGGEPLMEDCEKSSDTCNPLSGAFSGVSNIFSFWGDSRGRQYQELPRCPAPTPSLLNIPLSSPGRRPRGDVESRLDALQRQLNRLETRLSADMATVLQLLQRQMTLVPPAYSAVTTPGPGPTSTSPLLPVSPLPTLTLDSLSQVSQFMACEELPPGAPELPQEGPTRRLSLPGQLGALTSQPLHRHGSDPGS

In the case of `CN(C)CCn1nc(-c2cccc(Cl)c2)c2ccccc2c1=O` [GMD_13630], the inhibition (usually the drop in the measured response relative to a control, in per cent) at 10 µM in series [1] worked out at 79.1%. Also, inhibition in series [2] (Synthesis=NBI) was half-maximal at 2420 nM (IC50). Further, the affinity in series [3] (Synthesis=NBI) corresponds to a Ki of 1710 nM.

For `CN(C)CCCn1nc(-c2ccccc2)c2ccccc2c1=O` [GMD_14496], testing at 10 µM in series [1] gave an inhibition of 54.2%. In addition, in series [2] (Synthesis=NBI), the IC50 (usually the concentration at which inhibition is half-maximal) came out at 3580 nM. Also, affinity in series [3] (Synthesis=NBI) was put at a Ki of 2530 nM.

On to `CN(C)CCCN(Cc1ccc(Cl)c(Cl)c1)c1ncnc2ccn(C)c12` [m_27____7425384____18313558], for which testing at 10 µM in series [1] gave an inhibition of 75.9%. Also, half-maximal inhibition in series [2] (Synthesis=Enamine) (IC50) required 854 nM. Moreover, the affinity in series [3] (Synthesis=Enamine), expressed as Ki, was 604 nM.

In series [1], `CN(C)CCCN(Cc1ccc(Cl)c(Cl)c1)c1nccc2cccnc12` [s_27____7425384____16803680] came in with an inhibition at 10 µM of 96.3%. Moreover, 91.8 nM corresponded to half-maximal inhibition in series [2] (Synthesis=Enamine) (IC50). In series [3] (Synthesis=Enamine), affinity was put at a Ki of 64.9 nM.

`CN(C)CCn1nc(-c2ccccc2Cl)c2ccccc2c1=O` [GMD_12767] came in with an inhibition at 10 µM in series [1] of 84.2%. In series [2] (Synthesis=NBI), this compound had an IC50 of 1590 nM. Also, the Ki (commonly a measure of affinity in units of concentration, obtained from inhibition or displacement) in series [3] (Synthesis=NBI) amounted to 1120 nM.

`CN(C)CCN(Cc1ccccc1)Cc1nc2ccccc2n1C` [s_270004____10205888____7548808] came in with an inhibition at 10 µM in series [1] of 75%. Also, inhibition in series [2] (Synthesis=Enamine) was half-maximal at 1480 nM (IC50). Also, the Ki in series [3] (Synthesis=Enamine) was determined as 1050 nM.

`CN(C)CCCn1nc(-c2cccnc2)c2ccccc2c1=O` [GMD_11677] registered an inhibition at 10 µM in series [1] of 31.1%. Half-maximal inhibition in series [2] (Synthesis=NBI) (IC50) was put at 11100 nM. The Ki in series [3] (Synthesis=NBI) stood at 7870 nM.

On to `CN(C)CCCn1nc(-c2cccc(Cl)c2)c2ccccc2c1=O` [GMD_9433], for which, in series [1], the inhibition at 10 µM was determined as 92.5%. Besides, in series [2] (Synthesis=NBI), the IC50 amounted to 721 nM. This compound yielded a Ki in series [3] (Synthesis=NBI) of 510 nM.

As to `CN(C)CCCn1nc(-c2ccccc2)c2ccccc2c1=O` [s_49____14518112____88928], in series [2] (Synthesis=Enamine), the IC50 came to 3710 nM. In series [3] (Synthesis=Enamine), this compound returned a Ki of 2620 nM.

Turning to `CN(C)CCCn1nc(-c2cccs2)c2ccccc2c1=O` [compound 2, s_49__14518112__101877], in series [4], affinity was put at a Ki of 946 nM.

For `CCc1csc(N(CCCN(C)C)Cc2ccc(Cl)c(Cl)c2)n1` [s_27____7425384____12641810], the inhibition at 10 µM in series [1] is 86.2%. The compound also returned an IC50 in series [2] (Synthesis=Enamine) of 1070 nM. Further, the affinity in series [3] (Synthesis=Enamine) corresponds to a Ki of 757 nM.

`CN(C)CCCn1nc(-c2ccc(F)cc2)c2ccccc2c1=O` [s_49____14518112____1114614]: in series [1], 10 µM produced 80.8% inhibition. For the same compound, 2100 nM corresponded to half-maximal inhibition in series [2] (Synthesis=Enamine) (IC50).

`CN(C)CCN(Cc1cccs1)c1nccc(F)c1Cl` [s_27____7100914____15703356] registered an inhibition at 10 µM in series [1] of 55.7%. Moreover, the midpoint of inhibition in series [2] (Synthesis=Enamine), the IC50, lay at 7320 nM. Besides, in series [3] (Synthesis=Enamine), the Ki was determined as 5180 nM.

With `CN(C)CCCn1nc(-c2ccc(F)cc2)c2ccccc2c1=O` [compound 1, s_49__14518112__1114614], the affinity in series [4], expressed as Ki, was 1490 nM.

Compound `CN(C)CCN(Cc1cccc(Cl)c1)c1ncncc1Cl` [s_27____7100894____9139880] showed an inhibition at 10 µM in series [1] of 91.6%. In series [2] (Synthesis=Enamine), 717 nM corresponded to half-maximal inhibition (IC50). For the same compound, in series [3] (Synthesis=Enamine), affinity was put at a Ki of 507 nM.

As to `CN(C)CCCn1nc(-c2ccc(Cl)cc2)c2ccccc2c1=O` [s_49____14518112____88929], in series [2] (Synthesis=Enamine), the IC50 worked out at 909 nM.

`CN(C)CCN(Cc1ccccc1)c1nc2cccc(F)c2s1` [compound 4, s_27__7100858__10689034] returned a Ki in series [4] of 1590 nM.

In series [1], `CN(C)CCN(Cc1cccc(Cl)c1)c1cncc(Cl)n1` [s_27____7100894____215633] showed an inhibition at 10 µM of 78.1%. In series [2] (Synthesis=Enamine), this compound displayed an IC50 of 1660 nM. Also, affinity in series [3] (Synthesis=Enamine) was put at a Ki of 1180 nM.

Take `CN(C)CCCN(CCCN(C)C)c1ccc2c(Br)ccc(Cl)c2n1` [s_27____6492506____8281582]: the inhibition at 10 µM in series [1] is 69%. In series [2] (Synthesis=Enamine), the IC50 was 3250 nM. Further, in series [3] (Synthesis=Enamine), the Ki came out at 2300 nM.

The compound `CSc1nccc(N(CCCN(C)C)Cc2ccc(Cl)c(Cl)c2)n1` [s_27____7425384____15607934] returned an inhibition at 10 µM in series [1] of 86.6%. The compound further displayed an IC50 in series [2] (Synthesis=Enamine) of 1090 nM. The compound further registered a Ki in series [3] (Synthesis=Enamine) of 772 nM.

Turning to `CSc1ncccc1-c1nn(CCCN(C)C)c(=O)c2ccccc12` [NBI1100649], the inhibition at 10 µM in series [1] was 28.2%. Besides, half-maximal inhibition in series [2] (Synthesis=NBI) (IC50) was put at 8700 nM. The compound further returned an inhibition constant Ki in series [3] (Synthesis=NBI) of 6150 nM.

Turning to `CN(C)CCN(Cc1cccc(Cl)c1)c1nccc2cnccc12` [s_27____7100894____16733638], 10 µM produced 99.7% inhibition in series [1]. In series [2] (Synthesis=Enamine), this compound gave an IC50 of 119 nM. For the same compound, in series [3] (Synthesis=Enamine), the affinity, expressed as Ki, was 84 nM.

`CN(C)CCN(Cc1cccc(F)c1)Cc1c(Cl)ccc2cccnc12` [s_270004____10206024____8625260]: the inhibition at 10 µM in series [1] worked out at 97%. Besides, in series [2] (Synthesis=Enamine), the IC50 amounted to 156 nM. Also, affinity in series [3] (Synthesis=Enamine) was put at a Ki of 110 nM.

Take `CN(C)CCCn1nc(-c2ccc(Cl)cc2)c2ccccc2c1=O` [compound 3, s_49__14518112__88929]: the Ki in series [4] stood at 643 nM.

For the compound `CN(C)CCCN(Cc1ccc(Cl)c(Cl)c1)c1ncc(Cl)cc1[N+](=O)[O-]` [s_27____7425384____7556080], at 10 µM the inhibition in series [1] was 78.8%. The compound also gave an IC50 in series [2] (Synthesis=Enamine) of 1030 nM. This compound also gave a Ki in series [3] (Synthesis=Enamine) of 729 nM.

In the case of `CN(C)CCn1nc(-c2ccc(Cl)cc2)c2ccccc2c1=O` [NBI1099469], in series [1], 10 µM produced 71.7% inhibition. Also, in series [2] (Synthesis=NBI), the IC50 stood at 1740 nM. The Ki in series [3] (Synthesis=NBI) came to 1230 nM.

The compound `CN(C)CCN(Cc1ccccc1F)C(=O)c1csc2ccccc12` [s_527____7348186____205300] returned an inhibition at 10 µM in series [1] of 55.6%. In addition, the 50% inhibitory concentration (IC50) in series [2] (Synthesis=Enamine) was 7040 nM. Further, the Ki in series [3] (Synthesis=Enamine) came to 4980 nM.

`CN(C)CCCn1nc(-c2cccs2)c2ccccc2c1=O` [s_49____14518112____101877] came in with an inhibition at 10 µM in series [1] of 81.7%. This compound gave an IC50 in series [2] (Synthesis=Enamine) of 1340 nM.

For the compound `CN(C)CCn1c(-c2ccccc2Cl)nc2ccccc21` [s_60____1081314____90809], in series [1], at 10 µM the inhibition was 2.2%. In addition, half-maximal inhibition in series [2] (Synthesis=Enamine) (IC50) was put at 7050 nM. In series [3] (Synthesis=Enamine), this compound displayed a Ki of 4990 nM.

Turning to `CN(C)CCCn1nc(-c2cccs2)c2ccccc2c1=O` [GMD_12264], in series [2] (Synthesis=NBI), it took 1890 nM to reach half-maximal inhibition (IC50). For the same compound, in series [3] (Synthesis=NBI), the affinity corresponds to a Ki of 1340 nM.

In turn, `CN(C)CCN(Cc1ccccc1)c1nc2cccc(F)c2s1` [s_27____7100858____10689034] had an inhibition at 10 µM in series [1] of 83%. In addition, the IC50 in series [2] (Synthesis=Enamine) stood at 2240 nM.

Compound `CN(C)CCCn1nc(-c2ccccn2)c2ccccc2c1=O` [GMD_13497] came in with an inhibition at 10 µM in series [1] of 33.6%. Also, it took 6070 nM to reach half-maximal inhibition in series [2] (Synthesis=NBI) (IC50). In addition, in series [3] (Synthesis=NBI), the Ki was 4300 nM.

Consider `CN(C)CCN(C)c1nc2ccccc2n1Cc1ccccc1F` [GMD_15306], for which, in series [1], the inhibition at 10 µM was determined as 40.7%. In series [2] (Synthesis=NBI), this compound gave an IC50 of 3040 nM. Besides, the affinity in series [3] (Synthesis=NBI) corresponds to a Ki of 2150 nM.

With `CN(C)CCN(Cc1cccs1)c1ccncc1Cl` [s_27____7100914____16711384], testing at 10 µM in series [1] gave an inhibition of 49.5%. In addition, in series [2] (Synthesis=Enamine), the IC50 is 8570 nM. This compound registered a Ki in series [3] (Synthesis=Enamine) of 6060 nM.

Consider `CN(C)CCCn1nc(-c2ccc(Cl)cc2)c2ccccc2c1=O` [GMD_12503], for which testing at 10 µM in series [1] gave an inhibition of 72.4%. This compound returned an IC50 in series [2] (Synthesis=NBI) of 1220 nM. In addition, the affinity in series [3] (Synthesis=NBI) corresponds to a Ki of 866 nM.

`CN(C)CCN(Cc1ccccc1F)Cc1c(Cl)ccc2cccnc12` [s_270004____10205940____8625260] displayed an inhibition at 10 µM in series [1] of 88.9%. This compound also yielded an IC50 in series [2] (Synthesis=Enamine) of 82.5 nM. The same compound came in with a Ki in series [3] (Synthesis=Enamine) of 58.3 nM.

Take `CN(C)CCCn1nc(-c2cncc(Cl)c2)c2ccccc2c1=O` [GMD_27933]: the inhibition at 10 µM in series [1] was found to be 80.4%. The compound also displayed an IC50 in series [2] (Synthesis=NBI) of 968 nM. Further, in series [3] (Synthesis=NBI), the affinity corresponds to a Ki of 684 nM.

Compound `CN(C)CCN(Cc1ccccc1F)C(=O)N1CCCc2c(Cl)ccnc21` [s_272164____17323936____17325014] came in with an inhibition at 10 µM in series [1] of 90.6%. The compound also returned an IC50 in series [2] (Synthesis=Enamine) of 425 nM. In addition, in series [3] (Synthesis=Enamine), the Ki worked out at 300 nM.

In turn, `CN(C)CCCc1nc2ccccc2n1Cc1ccccc1` [compound 5, GMD_18471] displayed a Ki in series [4] of 400 nM. The compound further showed an inhibition at 10 µM in series [1] of 88.9%. Also, the IC50 in series [2] (Synthesis=NBI) was 565 nM.
